This experiment has as its target T1, Amine oxidase [flavin-containing] A (Homo sapiens, UniProt P21397).
T1 sequence (P21397 whole entry): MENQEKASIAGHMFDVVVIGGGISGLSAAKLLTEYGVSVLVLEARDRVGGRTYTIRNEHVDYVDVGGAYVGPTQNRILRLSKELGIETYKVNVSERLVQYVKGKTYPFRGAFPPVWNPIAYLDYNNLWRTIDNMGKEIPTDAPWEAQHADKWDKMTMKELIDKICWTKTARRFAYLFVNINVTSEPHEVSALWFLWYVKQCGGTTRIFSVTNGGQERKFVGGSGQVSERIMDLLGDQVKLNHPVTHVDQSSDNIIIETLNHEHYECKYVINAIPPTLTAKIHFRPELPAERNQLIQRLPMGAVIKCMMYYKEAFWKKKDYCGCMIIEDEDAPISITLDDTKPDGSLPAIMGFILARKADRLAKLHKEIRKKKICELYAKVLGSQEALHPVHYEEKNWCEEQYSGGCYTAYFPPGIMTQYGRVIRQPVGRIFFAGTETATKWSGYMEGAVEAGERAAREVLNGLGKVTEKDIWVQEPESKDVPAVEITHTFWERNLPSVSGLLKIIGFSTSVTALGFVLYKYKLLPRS
Put plainly: Fluorescence-Based (Inhibitor)-Screening Assay: In order to monitor MAO enzymatic activities and/or their inhibition rate by inhibitor(s) of interest, a fluorescence-based (inhibitor)-screening assay was set up. 3-(2-Aminophenyl)-3-oxopropanamine (kynuramine dihydrobromide, Sigma Aldrich), a non fluorescent compound was chosen as a substrate. Kynuramine is a non-specific substrate for both MAO-A and MAO-B activities. While undergoing oxidative deamination by MAO activities, kynuramine is converted into 4-hydroxyquinoline (4-HQ), a resulting fluorescent product.The monoamine oxidase activity was estimated by measuring the conversion of kynuramine into 4-hydroxyquinoline. Assays were conducted in 96-well black plates with clear bottom (Corning) in a final volume of 100 uL. The assay buffer was 100 mM HEPES, pH 7.5. […] Clorgyline and Deprenyl (Sigma Aldrich) was used as a control for specific inhibition of MAO-A and MAO-B respectively. After leaving the enzyme(s) interacting with the inhibitor, KM of kynuramine was added to each reaction for MAO-B and MAO-A assay respectively, and the reaction was left for 1 hour at 37° C. in the dark. The oxidative deamination of the substrate was stopped by adding 50 uL of NaOH 2N. […] The IC50 values of each inhibitor were calculated with GraphPad Prism Software.

Structures are written as SMILES.

One may read the Ki as a dissociation constant, usually derived from enzyme kinetics or from competition with a known ligand.

`N[C@H]1CC[C@H](N[C@@H]2C[C@H]2c2ccccc2)CC1`: the inhibition constant Ki is more than 40 µM.

Source of the values: ChEMBL document CHEMBL3886143, “(Hetero)aryl cyclopropylamine compounds as LSD1 inhibitors” (2016).
